Measurements: patent publication US12427161B2, “Methods for treating and pharmaceutical compositions” (Boehringer Ingelheim International GmbH, priority 2015, dated 2025)

Columns and labels:
[1] = tested on: Goto-Kakizaki diabetic rats (GK rats); assay: Erectile responses to electrical stimulation of the cavernous nerve (ES CN), intracavernous pressure in anesthetized rats; type: in vivo, rat
Procedure: Adult male Wistar (Charles River, France) and age-matched GK rats (Metabrain Research, Chilly-Mazarin, France) were housed at least 7 days prior to the beginning of the treatment with free access to control diet and water and maintained on an inversed 12 h dark/light cycle. At 15 weeks of age, treatments were started; n=12 Wistar (group I) rats and n=24 GK (group II) rats were fed with a control diet, while n=24 GK rats (group III) were fed for 28 days by a medicated diet i.e., control diet premixed with empagliflozin 300 ppm (parts per million corresponding to an average of 25.3 mg/kg body weight of empaglfilozin in that experiment).
On day 29th after starting treatment administration, and approximately 16 hours after the last treatment administration, fasted rats (19 weeks of age) underwent an in vivo evaluation of their erectile function after electrical stimulation of the cavernous nerve (ES CN), in comparison to acute dosing of sildenafil.
Erectile responses were elicited by electric stimulation (ES) of the cavernous nerve (CN) and measured by monitoring intracavernous pressure (ICP) in anesthetized rats according to an experimental procedure previously described and well-standardized. After an overnight fasting period, rats were anesthetized (urethane […]) and their temperature maintained at 37° C. using a homoeothermic blanket. A tracheotomy was performed to prevent aspiration of saliva and to perform, when required, artificial ventilation. The carotid artery was catheterized with polyethylene tubings filled with heparinized saline (25 UI/ml) to record blood pressure (BP) via a pressure transducer (Elcomatic 750, Glasgow, UK). Simultaneous computerized measure of BP and ICP was performed. CN was exposed at the lateral aspect of the prostate, with the aid of a dissecting microscope and mounted on a bipolar platinum electrode connected to an electrical stimulator (AMS 2100, Phymep, France). In some animals an acute dose of sildenafil (0.3 mg/kg) or vehicle was intravenously injected. […] The CN was stimulated at 6V, 1 ms for 45 s by different stimulation frequencies (0, 2.5, 5, 7.5, 10, 12.5 and 15 Hz) in a randomized manner in order to assess the erectile responses. These different electrical stimulations on the increase of ICP were repeated twice in view of establishing a frequency-response curve for each animal.
Mean arterial pressure (MAP) and the amplitude of the erectile responses elicited by each ES CN were quantified for each rat and averaged for each experimental group by calculating: • ICP (mmHg)/MAP (mmHg)×100 with AICP being the difference between ICP in the flaccid state, i.e. before stimulation and ICP during the plateau phase of the erectile response, and MAP, the mean arterial pressure during the plateau phase. • AUC45/MAP with AUC45, the area under the curve during the first 45 seconds after the beginning of the electrical stimulation of the cavernous nerve and determined using the ICP level in the flaccid state before the onset of the stimulation. • AUCtot/MAP with AUCtot, the area under the curve during the entire erectile response, measured from the beginning of the electrical stimulation until the end of the erectile response and determined using the ICP level in the flaccid state before the onset of the stimulation. • ICP increase and AUC were normalized with MAP to account for the close influence of the systemic blood pressure in the amplitude of ICP increase during the plateau phase of the erectile response.
For erectile function evaluation, comparisons of frequency-response curves were performed with a two-way ANOVA statistical analysis test followed by a Bonferroni's post-test. In case of significant interaction between the two factors (i.e. frequency of ES CN and experimental group), the difference between groups of rats was examined by the modified Student's t-test with the Bonferroni's adjustment for multiple comparisons.

[2] = tested on: corporal strips of diabetic GK rats; assay: EFS-induced relaxation of PHE-precontracted corpora cavernosa strips (ex vivo isometric tension); design: species or system rat
Procedure: In addition, to further evaluate erectile function, at the end of the in vivo evaluation of the ED, the penis of 24 GK rats (groups IIA & IIIA) and 12 wistar rats (group I) were immediately harvested and the corpora cavernosa (CC) dissected for ex vivo isometric tension studies. After extensive washings, corporal strips were incubated in the presence of guanethidine (5 μM) and atropine (1 μM) that were also added to the organ chambers for the remainder of the experiments. The corporal strips were placed between two parallel platinum electrodes in the organ baths. After equilibration (60 min), the electric field stimulation (EFS) experiments were started. Firstly, a priming period was observed where corporal strips from Wistar, GK (control) and GK_Chronic empa were exposed to phenylephrine (PHE) (10^−5 M) followed by an EFS-induced relaxation at 1 ms, 10 s, 300 mA and 20 Hz. Then, after washings, frequency-response curves (FRC) to EFS (1-2-4-8-16-32 Hz) was constructed on PHE-precontracted corporal strips (PHE 10^−5 M). Frequency response-curves (FRC) to EFS were performed by successive stimulation of the corporal strips at 1 ms, 10 s, 300 mA and increasing frequencies (1, 2, 4, 8, 16 and 32 Hz). […]
The results from duplicate determinations in one experiment with CC from one rat were averaged and the data expressed as mean±SEM for N experiments using CC from N different rats. […]

[3] = metformin on its own, in the diabetic; cited from earlier work
GK rats = conditions: acute single dose 0.3 mg/kg; cited from earlier work

## OC[C@H]1O[C@@H](c2ccc(Cl)c(Cc3ccc(O[C@H]4CCOC4)cc3)c2)[C@H](O)[C@@H](O)[C@@H]1O [empagliflozin, 1-chloro-4-(β-D-glucopyranos-1-yl)-2-[4-((S)-tetrahydrofuran-3-yloxy)-benzyl]-benzene]
[1]; chronic empagliflozin 25.3±0.9 mg/kg/day
  pro-erectile facilitator effect compared with acute IV dose of sildenafil at 0.3 mg/kg: slightly but significantly lower
[1]; empagliflozin in diet 25.3±0.9 mg/kg/day for 4 weeks, vs GK control diet, p=0.08, 2-way ANOVA, FIG. 1
  erectile responses to ES CN in terms of ΔICP/MAP: no difference could be statistically detected
[1]; empagliflozin premixed with diet 25.3±0.9 mg/kg/day for 4 weeks, vs GK control diet, p<0.05, FIG. 2a
  erectile responses to ES CN in terms of AUC45/MAP: improved
[1]; empagliflozin premixed with diet 25.3±0.9 mg/kg/day for 4 weeks, vs GK control diet, p<0.05, FIG. 2b
  erectile responses to ES CN in terms of AUCtot/MAP: improved
[2]; 4-week empagliflozin 25.3±0.9 mg/kg/d, mean±SEM, not significantly different from untreated
  maximal relaxation induced by EFS at 32 Hz (percentage of inhibition of the contractile response to PHE): −42.0±2.9%
[2]; 4-week treatment of empagliflozin at 25.3±0.9 mg/kg/d, vs untreated GK, p<0.05, 2-way ANOVA, FIG. 3
  relaxation induced by EFS on PHE precontracted cavernosal strips (frequency-response curve): slightly but significantly improved

## CN(C)C(=N)N=C(N)N [metformin]
[3]
  average improvement in the HbA1c value: 1.0-1.5%

## CCCc1nn(C)c2c(=O)[nH]c(-c3cc(S(=O)(=O)N4CCN(C)CC4)ccc3OCC)nc12 [sildenafil]
[1]; sildenafil 0.3 mg/kg acute i.v. 4 min before evaluation, vs GK control, p<0.0001, 2-way ANOVA, FIG. 1
  erectile response to ES CN in terms of ΔICP/MAP: significantly increased
[1]; sildenafil 0.3 mg/kg acute i.v., vs GK control, p<0.0001, 2-way ANOVA, FIG. 2a
  erectile response to ES CN in terms of AUC45/MAP: significantly increased
[1]; sildenafil 0.3 mg/kg acute i.v., vs GK control, p<0.0001, 2-way ANOVA, FIG. 2b
  erectile response to ES CN in terms of AUCtot/MAP: significantly increased
GK rats
  impaired erectile function in GK rats: partially improved
